Like-named read-outs stand apart in the source and are kept apart here.
Test system: Passive Cutaneous Anaphylaxis
Experiment: Passive Cutaneous Anaphylaxis Test
Format: in vivo, Donryu-strain male rats
Conditions: Rattus norvegicus, dose required for 50% inhibition, rats sensitized with reagin serum, egg albumin challenge after 48 hours
Protocol: A test solution containing a test compound was administered orally 1 hour before, or intraperitoneally 30 minutes before challenge. The animals were killed 30 minutes after challenge, the skin reflected, and the responses measured and scored 0 for diameter of wheal less than 5 mm, 1 for 5-10 mm,[…] 3 for 15-20 mm and 4 for more than 20 mm. The percentage inhibition was calculated using the formula: [formula]

[1] = ip, 0.5 h, i.p., 30 minutes before challenge, read-out: ED50 i.p.
[2] = po, 1 hour before challenge, read-out: ED50 p.o.

SMILES | ED50 [1] [mg/kg] | ED50 [2] [mg/kg]
CC(=O)c1ccc2oc3ncccc3c(=O)c2c1 [A, 7-acetyl-5-oxo-5H-[1]benzopyrano[2,3-b]pyridine] | 1 | 10
CC(C)C(=O)c1ccc2oc3ncccc3c(=O)c2c1 [B, 7isobutyryl-5-oxo-5H-[1]benzopyrano[2,3-b]pyridine] | 1 | 25 to 50
O=C(O)c1ccc2oc3ncccc3c(=O)c2c1 [C, 5-oxo-5H-[1]benzopyrano[2,3-b]pyridine-7-carboxylic acid] | 2 | 25
O=C([O-])c1ccc2oc3nc(-c4ccccc4)ccc3c(=O)c2c1.[Na+] [D, sodium 2-phenyl-5-oxo-5H-[1]benzopyrano[2,3-b]pyridine-7-carboxylate] | 1 | 40

Reference: US3931199A, “Benzopyrano and benzothiopyrano [2,3-6] pyridines” (Yoshitomi Pharmaceutical Industries, Ltd., priority 1973, dated 1976)
